In US20200397894A1, “COMPOSITIONS AND METHODS FOR TREATING CANCER” (University of Virginia Patent Foundation, priority 2016, published 2020):

Tests used:
[1] = test system: Trl46 HNSCC cells; details: Trl46, 1 μM pevonedistat; cited from earlier work
[2] = test system: VMM18 cells; experiment: Rereplication by propidium iodide staining and FACS; format: cell-based, human; details: VMM18, 1 μM pevonedistat
Description: (§1) The effects of pevonedistat, vemurafenib, and/or silencing of various cell cycle-associated proteins by siRNA on cell cycle distribution and rereplication were assessed by propidium iodide staining and flow cytometry of asynchronous melanoma cultures. Synchronization of cells was not employed to avoid bias and to be able to measure the impact of these perturbations on proliferating cancer cells. Briefly, asynchronous melanoma cell lines were treated with pevonedistat or vemurafenib, or transfected with si-CDT1, si-CDT2, si-SET8, si-p21, sigeminin, si-EMI1, or si-GL2 for a time ranging from 24 to 96 hours. Cells were washed with cold PBS, harvested, and fixed in 70% (v/v) ethanol. Cells were subsequently treated with 20 μg of DNase-free RNase and stained with propidium iodide according to instructions of the manufacturer. Samples were analyzed on a FACSCAN™ (Becton, Dickinson and Company, Franklin Lakes, N.J., United States of America) and G0-G1, S, and G2-M fractions were segmented, and apoptotic (sub-G1 DNA content) and rereplicating (>G2/M DNA content) fractions were determined using FLOWJO® (FLOWJO, LLC, Ashland, Oreg., United States of America) and ModFit (Verity Software House, Topsham, Me., United States of America) software.

[3] = test system: SK-MEL-28 cells; experiment: as above; format: cell-based, human; details: SK-MEL-28, 1 μM pevonedistat
Description: as §1

[4] = test system: DM13 cells; experiment: as above; format: cell-based, human
Description: as §1

[5] = test system: DM93 cells; experiment: Clonogenic survival assay; format: cell-based, human
Description: (§2) Cell survival following CDT2 depletion or pevonedistat treatment was assessed by clonogenic survival assay, preformed in triplicates. 72 hours following transfection with si-GL2 or si-CDT2, cells were trypsinized, counted, and seeded in 60 mm dishes. For pevonedistat treatments, cells were counted and seeded in 60 mm dishes and treated 24 hours later with various doses of pevonedistat or with DMSO. Cells were cultured for two weeks and were subsequently washed in cold PBS, fixed in cold methanol for 10 minutes, and stained with crystal violet (0.5%) for 10 minutes. Plates were washed with water, dried, and pictures were captured using IMAGE LAB™ software (BioRad Laboratories, Inc., Hercules, Calif., United States of America). Quantification of colonies was performed using QUANTITY ONE® software (BioRad Laboratories, Inc., Hercules, Calif., United States of America). Results are represented as mean±s.e.m. of triplicates normalized to the corresponding DMSO-treated or si-GL2 transfected controls.

[6] = test system: VMM39 cells; experiment: Clonogenic survival assay; format: cell-based, human
Description: as §2

[7] = test system: Cal27 xenografts; experiment: HNSCC flank xenograft in nude mice; format: in vivo
Description: The animal studies were conducted in accordance with the guidelines established by the University of Virginia Animal Care and Use Committee (ACUC). The effect of pevonedistat on tumor growth was tested in a flank HNSCC xenograft model. 4-5 weeks old Foxn1^nu athymic female nude immunodeficient mice (20-25 g body weight; Harlan Laboratories, now Envigo, Indianapolis, Ind., United States of America) were used. Pevonedistat was prepared in 10% DMSO containing PBS and filtered before use. 5×10^6 Cal27 cells (suspended in 200 μl sterile PBS) were inoculated subcutaneously in both flanks of nude mice (8 mice per group). When the tumor size reached 100 mm^3 (10 days post-inoculation), mice were randomized and were treated with pevonedistat (20 mg/kg), or with control vehicle (DMSO), administered intraperitoneally on a regimen of 5 days on/5 days off for 2 cycles (Tardat et al., 2010). Tumors from a third group of mice were exposed to 1Gy irradiation (IR) daily, 5 days/week for 3 weeks, and a fourth group of mice received both pevonedistat and IR treatments. Tumor irradiation was performed at the University of Virginia X-Ray facility, and only the tumors on both flanks were irradiated while the rest of animal body was shielded. For combination treatment, pevonedistat was given 2 hours prior to radiation exposure with the same schedule as for the individual treatments. Tumor growth was monitored every other day using an electronic caliper, for 3 weeks post-treatment and average of tumor volumes were calculated using the formula (L×W^2)/2). The results are represented as the mean tumor volumes±s.e.m, and p<0.05 was considered significant.

[8] = test system: HNSCC cells; experiment: Colony formation and CYQUANT cell viability assays; format: cell-based; details: Homo sapiens
Description: HNSCC cells were transfected with si-RNA (48 hours prior to first count) or treated with pevonedistat (24 hours prior to first count). 8×10^5 cells were seeded in 60 mm plates and cell proliferation was determined by staining with trypan blue and counting by COUNTESS™ Automated Cell Counter (INVITROGEN™, Carlsbad, Calif., United States of America). Depending on the cell growth rate, cell counts were recorded either every 24 or 48 hours, and growth curves were established.
The effect of pevonedistat treatment or transient silencing of CDT2, geminin, or EMI1 on cell proliferation or on radiation sensitivity was tested using clonogenic survival assays. Cells were transfected with the appropriate si-RNA 48 hours prior to seeding. Cells were then counted using COUNTESS™ Automated Cell Counter (INVITROGEN™, Carlsbad, Calif., United States of America) and were seeded at 15,000 cells/plate in 60 mm dishes. Cells were irradiated 24 hours after seeding with various doses and were cultured for 7-10 days. […] QUANTITY ONE® software (BioRad Laboratories, Inc., Hercules, Calif., United States of America) was used to quantify the number of colonies and survival curves were established based on the linear quadratic model, using the formula S=e^−αD-βD2; where S represents the surviving fraction and D the dose of irradiation. […]

For `NS(=O)(=O)OCC1CC(n2ccc3c(NC4CCc5ccccc54)ncnc32)CC1O` [pevonedistat, ((1S,2S,4R)-4-(4-((1S)-2,3-Dihydro-H-inden-1-ylamino)-7H-pyrrolo(2,3-d)pyrimidin-7-yl)-2-hydroxycyclopentyl)methyl sulphamate], the “apoptosis (% of cells)” value [1] is given as 65%, the “Percent of Cells in S and G2/M at 24 hours” value (from here on “Percent … at 24 hours”) ([2]; 24 hours) is given as 7.83% and the “Percent of Cells in S and G2/M at 72 Hours” value (“Percent … at 72 Hours” below) ([2]; 72 hours) is given as 16.9%. The “Percent … at 24 hours” value ([3]; 24 hours) was 38.7%, the “Percent … at 72 Hours” value ([3]; 72 hours) was 55.9% and the “Percent … at 24 hours” value ([4]; DM13, 1 μM pevonedistat, 24 hours) was 10.4%. The “Percent … at 72 Hours” value ([4]; DM13, 1 μM pevonedistat, 72 hours) was 13.7%, the cells undergoing rereplication ([4]; DM13, 72 hours post-treatment) was 13.7% and the “drug concentration inhibiting proliferation (clonogenic survival)” value [5] was 100 nM. The “drug concentration inhibiting proliferation (clonogenic survival)” value [6] was 50 nM, the “growth of Cal27 xenografts” value ([7]; 20 mg/kg IP, p=0.0211) was “significantly suppressed” and the “growth of Cal27 xenografts, combined treatment with IR” value ([7]; 20 mg/kg pevonedistat plus 1 Gy IR daily, p=2×10^−3 vs. control) was “more suppression than either treatment alone”. For the same compound, the tolerability ([7]; nude mice, 20 mg/kg IP, 5 days on/5 days off, two cycles) was “well tolerated”, the “effect on mouse weight” value ([7]; weighed once a week during the entire experiment) was “no significant effect” and the IC50 [8] was about 50 nM.
